Assay results as given in ChEMBL document CHEMBL1147342, “Isolation and structure of the marine sponge cell growth inhibitory cyclic peptide phakellistatin 1” (1993).
Values after ≈ are worked out from the molar mass of the structure shown. Peptide text beside a SMILES is read from it.

Tested on: P388
Test: Cytotoxicity against mouse P388 cells
Type: functional
Conditions: read-out: ED50 (the source's name)

Q: Which EC50 does the source give for `CC[C@H](C)[C@@H]1NC(=O)[C@@H]2CCCN2C(=O)[C@H]([C@@H](C)CC)NC(=O)[C@@H]2CCCN2C(=O)[C@H](Cc2ccc(O)cc2)NC(=O)[C@@H]2CCCN2C(=O)[C@H](Cc2ccccc2)NC1=O` [PHAKELLISTATIN 1] (cyclo(FPYPIPI)) here?
A: 7.5 µg/mL (≈ 9.06 µM)
